# In patent US20190284192A1, “NITROGENOUS MACROCYCLIC COMPOUND, PREPARATION METHOD THEREFOR, PHARMACEUTICAL COMPOSITION AND APPLICATION THEREOF” (LUOXIN PHARMACEUTICAL (SHANGHAI) CO., LTD., priority 2016, published 2019):
# Values joined by “and” are separate entries in the source; they are usually repeats but may differ in a detail not shown here. Equal values may be shown once. Read-outs that look alike come from different tables or passages of the source.
# How the values were obtained:
# [1] = Cassette pharmacokinetic study, intravenous or oral administration; assay type: in vivo, female Balb/c nude mice; parameters: Cmax: unit not given here; conditions: for half-life: read-out: Terminal t1/2 (converted)
# Experimental: Determinations of the pharmacokinetic parameters of ABBV-075 (standard control), 4009, 4018, 4026 and 4031 in femal Balb/c nude mice after intravenous or oral administration.
# Detailed Experimental Steps:
# 6 female Balb/c nude mice weighing 18-20 g were divided into two groups (3/group), after fixation, the intravenous group: 0.5 mg/kg (5 mL/kg) injected by caudal vein (N=3); the oral group: 2 mg/kg (10 mL/kg) by intragastic administration (N=3). Approximately 20 μL of blood was drawn behind the eyeball at the sampling point and placed in EDTA-2K tube. The sample was immediately diluted with 40 μL of double distilled water and vortexed until well mixed. Blood samples were stored at approximately −70° C. and submitted to the BA group for analysis (LC/MS). 30 μL of blood sample was added with 200 μL of H2O and 30 μL of IS dexamethasone, 200 ng/mL), layered by LLE, and 1 mL of MTBW was added as an organic extraction solvent. The mixture was vortexed for 10 min and centrifuged at 10,000 rpm for 5 min. 850 μL of the supernatant was evaporated under nitrogen until desiccated. The desiccated extract was re-mixed with 150 μL of 50% methanol, vortexed for 2 min, and then analyzed by injecting 5 μL of the supernatant into LC-MS/MS.
# 2. Intravenous/oral administration formula: 5% DMSO, 95% (10% HP-3-CD in water)
# 3. PK calculation parameter used non-compartment model, WinNonlin 6.4 software calculation
# [2] = Body weight of MV-4-11 tumor-bearing mice during treatment; assay type: in vivo
# Experimental: The preparation and any revision of this experimental protocol are carried out in accordance with the evaluation criteria of the “Institute for Animal Care and Use (IACUC)” of Shanghai Chempartner Chemical Research Co., Ltd. The use and welfare of laboratory animals are carried out in accordance with the provisions of the Association for Assessment and Accreditation of Laboratory Animal Care (AAALAC). Animals are monitored daily for health and death. Routine examinations include observations of the effects of the test substance and the drug on the daily behavior of the animal such as behavioral activities, intake of water and feeds, weight change (three weights measured weekly), appearance signs or other anormal circumstance. The number of animal deaths and side effects in the group were recorded based on the number of animals in each group.
# [3] = system: MV-4-11 subcutaneous xenograft tumor; assay: Anti-tumor efficacy in vivo, MV-4-11 subcutaneous xenograft model; parameters: species or system BALB/c nude mice; conditions: for P, tumor volume difference between the control group and the administrated group: Two-way Anova Bonferroni post-test
# Experimental: Experimental protocol: 0.2 mL of cell suspension containing about 5×10^MV-4-11 cells (cell suspended in IMDM medium and added with 50% Matrigel) was inoculated subcutaneously into the right back of each mouse. Group administration was initiated when the average tumor volume reached approximately 136.94 mm^3 (day 15 post inoculation). Grouping method: Animals were weighed before dosing and tumor volume was measured. Grouping designed based on tumor volume.
# The experimental indicator is to investigate whether tumor growth can be inhibited, delayed or cured. Tumor diameters were measured with vernier calipers three times a week. The formula for calculating tumor volume is: V=0.5×a×b^2, a and b represent the long and short diameters of the tumor, respectively. The antitumor effect of the compound was evaluated by T/C (%). T/C %=TRTV/CRTV×100% (TRTV: treatment group RTV; CRTV: negative comparative group RTV). The relative tumor volume RTV is calculated as RTV=Vt/V1. Where V1 is the measured tumor volume at the time of group administration (i.e., Day 1), and Vt is the tumor volume at each measurement.
# The tumor volume and tumor size were analysed by statistical software. GraphPad Prism software was used for analyzation, p<0.05 is considered to have significant difference, p<0.01 is considered to have extremely significant difference.
# Two-way Anova Bonferroni post-test is used to compare the tumor volume difference between the control group and the treatment group.
# [4] = system: MYC mRNA expression in MV-4-11 xenograft tumor; assay: PKPD of compound 4009 in MV-4-11 subcutaneous xenograft (MYC mRNA by RT-qPCR); assay type: in vivo, BALB/c nude mice; conditions: 15 mg/kg single dose intragastric; 1, 2, 4, 6, 8, 24 h
# Experimental: Cell Culture MV-4-11 (purchased from ATCC, CRL-9591) cells were single-layer-cultured in vitro, culture condition is IMDM medium supplemented with 10% heat-inactivated fetal bovine serum and 1% penicillin-streptomycin double antibody, at 37° C., 5% CO2. According to the growth of the cells, the treatment was passaged twice a week. When the cells are in the exponential growth phase, the cells are collected, counted, and inoculated.
# Experimental protocol: 0.2 mL of cell suspension containing about […] cells (cell suspended in IMDM medium and added with 50% Matrigel) was inoculated subcutaneously into the right back of each mouse. […] Grouping method: animals were weighed before dosing and tumor volume was measured. […]
# Preparation of cDNA: The concentration of RNA (NanaDrop2000) was determined, 2 μg RNA was used as a template for reverse transcription, and cDNA preparation (RT-PCR) was performed using a High Capacity cDNA Reverse Transcription Kit.
# Quantitative amplification of the target gene: Real-time qPCR amplification was performed using TaqMan fluorescent probe and cDNA as a template. […] The reaction system was separately added to a 384-well plate, and each sample of the target gene and the comparative gene was measured for three replicate wells, and the reaction was run on a prepared 384-well plate instrument (ABI ViiA7).
# MV-4-11 cells = assay: Inhibitory effect on MV-4-11 cells (CellTiter-Glo); assay type: cell-based; conditions: Homo sapiens, MV4-11; 72 hours, CellTiter-Glo; read-out: MV-4-11
# BRD4 (BD2) = target: T1, BRD4 (BD2) (Homo sapiens, UniProt O60885); assay: BRD4 (BD2) bromodomain binding, HTRF; conditions: 2 h incubation at r.t.
# T1 construct: Each member comprises two tandem bromodomains (BD1 and BD2) for recognizing the acetylated lysine residues
# [5] = female, Balb/c nude, mouse, whole blood, IV 0.5 mg/kg, N = 3, cassette
# [6] = female, Balb/c nude, mouse, whole blood, PO 2 mg/kg, N = 3, cassette
# [7] = x ± SEM, intragastric QD*14, ABBV-075 3, GSK762 15, 4009 10 mg/kg
smiles,measurement,setting,value
"CCS(=O)(=O)Cc1ccc2c(c1)-c1cn(C)c(=O)cc1CN=C2c1ccc(F)cc1 [Compound 4009, 7-(4-fluorophenyl)-2-methyl-10-(ethylsulfonemethyl)-2H-benzo[c]pyrido[3,4-e]azepin-3(5H)-ketone]",F,[1]; PO 2 mg/kg vs IV 0.5 mg/kg,99.7%
same,Cmax,"[1]; PO 2 mg/kg, N = 3, cassette",742
same,AUC(0-inf),[1]; [5],590 ng·h/mL
same,AUC(0-t),[1]; [5],575 ng·h/mL
same,MRT inf,[1]; [5],1.61 h
same,clearance,[1]; [5],14.2 mL/min/kg
same,half-life,[1]; [5],1.69 h
same,Vd,"[1]; female, Balb/c nude, mouse, whole blood, IV 0.5 mg/kg, N = 3, cassette, read-out: Vss",1.38 L/kg
same,AUC(0-inf),[1]; [6],2350 ng·h/mL
same,AUC(0-t),[1]; [6],2250 ng·h/mL
same,Tmax,[1]; [6],0.667 h
same,half-life,[1]; [6],4.21 h
same,body weight and condition of mice during the entire administration period,[2]; 4009 10 mg/kg intragastric QD*14,did not decrease in body weight
same,"Average RCBW, Treatment end Day 15","[2]; relative body weight change vs Day 1, intragastric QD*14, ABBV-075 3, GSK762 15, 4009 10 mg/kg",2.82%
same,"Average body weight, Treatment end Day 15",[2]; [7],21.88 ± 0.73 g
same,"Average body weight, Treatment start Day 1",[2]; [7],21.26 ± 0.38 g
same,anti-tumor effect on the MV-4-11 cell xenograft tumor mouse model,"[3]; ABBV-075 3 mg/kg, GSK762 15 mg/kg, 4009 10 mg/kg, intragastric QD*14",significant anti-tumor effect
same,T/C %,"[3]; TRTV/CRTV, intragastric QD*14, ABBV-075 3, GSK762 15, 4009 10 mg/kg, 15th day",30.13%
same,"P, tumor volume difference between the control group and the administrated group","[3]; day 1 after administration, ABBV-075 3, GSK762 15, 4009 10 mg/kg",P > 0.05
same,"P, tumor volume difference between the control group and the administrated group","[3]; day 4 after administration, ABBV-075 3, GSK762 15, 4009 10 mg/kg",P > 0.05
same,"P, tumor volume difference between the control group and the administrated group","[3]; day 6 after administration, ABBV-075 3, GSK762 15, 4009 10 mg/kg",P > 0.05
same,"P, tumor volume difference between the control group and the administrated group","[3]; day 8 after administration, ABBV-075 3, GSK762 15, 4009 10 mg/kg",P > 0.05
same,"P, tumor volume difference between the control group and the administrated group","[3]; day 11 after administration, ABBV-075 3, GSK762 15, 4009 10 mg/kg",P < 0.001 (***)
same,"P, tumor volume difference between the control group and the administrated group","[3]; day 13 after administration, ABBV-075 3, GSK762 15, 4009 10 mg/kg",P < 0.001 (***)
same,"P, tumor volume difference between the control group and the administrated group","[3]; day 15 after administration, ABBV-075 3, GSK762 15, 4009 10 mg/kg",P < 0.001 (***)
same,"Average tumor weight, 15th day of treatement","[3]; intragastric QD*14, ABBV-075 3, GSK762 15, 4009 10 mg/kg",0.276 ± 0.08 g
same,"Average tumor volume, Treatement starts 1st day","[3]; intragastric QD*14, ABBV-075 3, GSK762 15, 4009 10 mg/kg, 1st day",136.78 ± 14.97 mm^3
same,Tumor volume TGI (%) 4th day,"[3]; intragastric QD*14, ABBV-075 3, GSK762 15, 4009 10 mg/kg, 4th day",81.27%
same,Tumor volume TGI (%) 6th day,"[3]; intragastric QD*14, ABBV-075 3, GSK762 15, 4009 10 mg/kg, 6th day",75.63%
same,Tumor volume TGI (%) 8th day,"[3]; intragastric QD*14, ABBV-075 3, GSK762 15, 4009 10 mg/kg, 8th day",79.64%
same,Tumor volume TGI (%) 11th day,"[3]; intragastric QD*14, ABBV-075 3, GSK762 15, 4009 10 mg/kg, 11th day",83.17%
same,Tumor volume TGI (%) 13th day,"[3]; intragastric QD*14, ABBV-075 3, GSK762 15, 4009 10 mg/kg, 13th day",81.77%
same,Tumor volume TGI (%) 15th day,"[3]; intragastric QD*14, ABBV-075 3, GSK762 15, 4009 10 mg/kg, 15th day",81.16%
same,"Average tumor volume, Treatement ends 15th day","[3]; intragastric QD*14, ABBV-075 3, GSK762 15, 4009 10 mg/kg, 15th day, 10 mg/kg",305.80 mm^3 and 305.80 ± 81.48 mm^3
same,inhibition of the expression level of MYC mRNA in the tumor versus concentration of the drug in the tumor,[4],good correlation
same,IC50,MV-4-11 cells,53 nM
same,IC50,BRD4 (BD2),5 nM
